Consider one compound from paper PMC11513893, “Discovery of Oral Degraders of the ROS1 Fusion Protein with Potent Activity against Secondary Resistance Mutations” (Journal of Medicinal Chemistry, 2024).

Where “and” joins values, the source holds several entries; their conditions need not be identical. Equal values may be shown once.

The target of one data set is INSRR (Homo sapiens, UniProt P14616). As to the kind of experiment: Kinase assay. Format: biochemical. As to conditions: average of duplicate measurements.
For the next data set, the target named is FER (Homo sapiens, UniProt P16591). Kind of data set: Kinase assay. Format: biochemical. The following applies: average of duplicate measurements.
The target in another data set is CAMK2G (Homo sapiens, UniProt Q13555). Kind of data set: Kinase assay. The following applies: average of duplicate measurements. It counts as biochemical.
Another data set has as its system ROS1 (L2086F). Kind of data set: Degradation assay. It counts as cell-based. The following applies: average of duplicate measurements. The procedure:
However, the degradation selectivity of 9o often contrasts with its kinase binding selectivity as determined in cells treated with 9o where the kinase level was measurable by Western blot analysis. […] For example, FLT3, CHEK2, and FES, all with kinase binding at <10 nM, were only moderately or minimally degraded, if at all (Table 9).
Protein levels were analyzed using a WES instrument according to the WES User Guide from ProteinSimple in duplicate experiments. The samples were mixed with the fluorescent 5 master mix (ProteinSimple) and then heated at 95 °C for 5 min. Boiled samples, biotinylated protein ladder, antibody diluent, Streptavidin-HRP, primary antibodies, ProteinSimple horseradish peroxidase conjugated antirabbit or antimouse secondary antibodies, luminol-peroxide, and wash buffer were loaded into the WES plate (Wes 12–230 kDa Prefilled Plates with Split Buffer, ProteinSimple). The plates and capillary cartridges were loaded into the WES instrument, and protein separation, antibody incubation, and imaging were performed according to manufacturer’s instructions. Compass software (ProteinSimple) was used to acquire the data and to generate the virtual blot image reconstruction and chemiluminescence signal intensity electropherograms. […] Protein levels are expressed as the AUC of the peak chemiluminescence intensity. […]

A short description of the next data set: Log P measurement. Format: physicochemical. An excerpt: An important physicochemical property for a PROTAC molecule is its lipophilicity that largely dictates its pharmaceutical performance such as absorption, permeability, and distribution.
Data set [1] deals with Ba/F3 CD74-ROS1 non mutant. As to the kind of experiment: Antiproliferation assay (Alamar Blue, 72 h). Format: cell-based, mouse. The following applies: Mus musculus, BaF3, 72 h, Ba/F3 cells, cell growth inhibition. Background: Resazurin is reduced to fluorescent resorufin, in cell work by metabolically active cells.
The target of another data set is ROS1 (G2032R) (Homo sapiens, UniProt P08922, G2032R). As to the kind of experiment: Kinase assay. It counts as biochemical. The following applies: average of duplicate measurements.
Data set [2] in a line: Pharmacokinetics study in Sprague–Dawley rats. It counts as in vivo. The following applies: rat, 0.5 mg/kg iv.
For a further data set, the target named is EGFR (Homo sapiens, UniProt P00533). Kind of data set: Kinase assay. The following applies: average of duplicate measurements. It counts as biochemical.
Data set [3] has as its system Ba/F3 CD74-ROS1 WT xenograft tumors. As to the kind of experiment: Mouse efficacy study, Ba/F3 CD74-ROS1 xenograft. Format: in vivo. The following applies: NOD/SCID mice. The procedure: (§1) All the procedures related to animal handling, care, and treatment in this study were performed according to guidelines approved by the Institutional Animal Care and Use Committee (IACUC) of Xavier University of Louisiana following the guidance of the AAALAC. Ba/F3-ROS1 and Ba/F3-ROS1-G2032R cells were maintained in RPMI 1640 medium supplemented with 10% fetal bovine serum. The cells growing in an exponential growth phase were harvested and counted for tumor inoculation. Female NOD/SCID mice 6–8 weeks of age were allowed to adapt to laboratory conditions for 10 days prior to dosing and were allowed food and water ad libitum. Each mouse was inoculated subcutaneously in the right flank with Ba/F3 CD74-ROS1 or Ba/F3 SL34A2-ROS1 G2032R cells (1 × 10^6) in 0.2 mL of PBS mixed with Matrigel (50:50) for tumor development.

In another data set the target is ERBB2 (Homo sapiens, UniProt P04626). Kind of data set: Kinase assay. Format: biochemical. The following applies: average of duplicate measurements.
For data set [4], the system named is Ba/F3 ROS1 L2086F, S1986F/L2086F, S1986F/G2032R/L2086F. As to the kind of experiment: Antiproliferation assay, resistant mutations involving L2086F. It counts as cell-based. As to conditions: Mus musculus, BaF3; Ba/F3 cells, summary of Table 6; read-out: potency against resistant mutations involving L2086F, S1986F/L2086F, S1986F/G2032R/L2086F. On the procedure:
To assess the 72 h effect of drug treatment on cell proliferation, 2000 to 3000 cells were plated in replicates of three in 96-well plates. The plates were placed in an incubator at 37 °C, 5% CO2 for 72 h. Following drug treatments, the cells were incubated with the Alamar Blue Assay reagent (BioRad), 5 μL each well for 4 h at 37 °C and 5% CO2. Luminescence was measured on a multiplate reader and analyzed. […] IC50 values were determined using a nonlinear regression model with a sigmoidal dose response in GraphPad. The data were collected based on triplicate experiments, and presented as mean ± SD.

Data set [5] has as its system Ba/F3 SLC34A2-ROS1 G2032R xenograft tumors. As to the kind of experiment: Mouse efficacy study, Ba/F3 SLC34A2-ROS1 G2032R xenograft. Format: in vivo. As to conditions: NOD/SCID mice. On the procedure: as §1
The next data set concerns Ba/F3 ROS1-G2032R. Kind of data set: Antiproliferation assay. Format: cell-based, mouse. The following applies: Mus musculus, BaF3; Ba/F3 cells, cell growth inhibition, 72 h.
In another data set the target is FES (Homo sapiens, UniProt P07332). Kind of data set: Kinase assay. Format: biochemical. The following applies: average of duplicate measurements.
FES, sequence (P07332 whole entry, species assumed): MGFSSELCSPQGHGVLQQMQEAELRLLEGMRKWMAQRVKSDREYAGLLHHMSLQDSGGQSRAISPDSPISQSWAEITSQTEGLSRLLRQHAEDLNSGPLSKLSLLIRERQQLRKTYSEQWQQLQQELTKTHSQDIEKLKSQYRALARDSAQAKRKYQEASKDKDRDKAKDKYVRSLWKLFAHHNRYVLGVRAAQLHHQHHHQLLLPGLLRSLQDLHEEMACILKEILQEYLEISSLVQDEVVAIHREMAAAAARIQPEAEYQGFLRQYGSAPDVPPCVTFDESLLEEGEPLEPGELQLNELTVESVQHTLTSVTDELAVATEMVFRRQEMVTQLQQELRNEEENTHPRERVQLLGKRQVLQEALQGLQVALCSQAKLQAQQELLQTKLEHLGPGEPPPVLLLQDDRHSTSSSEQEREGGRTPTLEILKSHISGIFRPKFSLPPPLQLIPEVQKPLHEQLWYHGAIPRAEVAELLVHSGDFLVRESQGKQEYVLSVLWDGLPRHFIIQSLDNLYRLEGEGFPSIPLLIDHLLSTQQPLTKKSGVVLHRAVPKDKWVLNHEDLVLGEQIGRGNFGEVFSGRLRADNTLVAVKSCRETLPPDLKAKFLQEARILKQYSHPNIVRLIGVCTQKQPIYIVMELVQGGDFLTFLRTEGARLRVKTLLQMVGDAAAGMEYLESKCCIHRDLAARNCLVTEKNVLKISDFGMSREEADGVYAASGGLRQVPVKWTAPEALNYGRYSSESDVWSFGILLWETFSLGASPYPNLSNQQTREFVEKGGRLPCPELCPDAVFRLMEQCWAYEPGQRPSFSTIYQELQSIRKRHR

INSRR, sequence (P14616 27-1297, species assumed): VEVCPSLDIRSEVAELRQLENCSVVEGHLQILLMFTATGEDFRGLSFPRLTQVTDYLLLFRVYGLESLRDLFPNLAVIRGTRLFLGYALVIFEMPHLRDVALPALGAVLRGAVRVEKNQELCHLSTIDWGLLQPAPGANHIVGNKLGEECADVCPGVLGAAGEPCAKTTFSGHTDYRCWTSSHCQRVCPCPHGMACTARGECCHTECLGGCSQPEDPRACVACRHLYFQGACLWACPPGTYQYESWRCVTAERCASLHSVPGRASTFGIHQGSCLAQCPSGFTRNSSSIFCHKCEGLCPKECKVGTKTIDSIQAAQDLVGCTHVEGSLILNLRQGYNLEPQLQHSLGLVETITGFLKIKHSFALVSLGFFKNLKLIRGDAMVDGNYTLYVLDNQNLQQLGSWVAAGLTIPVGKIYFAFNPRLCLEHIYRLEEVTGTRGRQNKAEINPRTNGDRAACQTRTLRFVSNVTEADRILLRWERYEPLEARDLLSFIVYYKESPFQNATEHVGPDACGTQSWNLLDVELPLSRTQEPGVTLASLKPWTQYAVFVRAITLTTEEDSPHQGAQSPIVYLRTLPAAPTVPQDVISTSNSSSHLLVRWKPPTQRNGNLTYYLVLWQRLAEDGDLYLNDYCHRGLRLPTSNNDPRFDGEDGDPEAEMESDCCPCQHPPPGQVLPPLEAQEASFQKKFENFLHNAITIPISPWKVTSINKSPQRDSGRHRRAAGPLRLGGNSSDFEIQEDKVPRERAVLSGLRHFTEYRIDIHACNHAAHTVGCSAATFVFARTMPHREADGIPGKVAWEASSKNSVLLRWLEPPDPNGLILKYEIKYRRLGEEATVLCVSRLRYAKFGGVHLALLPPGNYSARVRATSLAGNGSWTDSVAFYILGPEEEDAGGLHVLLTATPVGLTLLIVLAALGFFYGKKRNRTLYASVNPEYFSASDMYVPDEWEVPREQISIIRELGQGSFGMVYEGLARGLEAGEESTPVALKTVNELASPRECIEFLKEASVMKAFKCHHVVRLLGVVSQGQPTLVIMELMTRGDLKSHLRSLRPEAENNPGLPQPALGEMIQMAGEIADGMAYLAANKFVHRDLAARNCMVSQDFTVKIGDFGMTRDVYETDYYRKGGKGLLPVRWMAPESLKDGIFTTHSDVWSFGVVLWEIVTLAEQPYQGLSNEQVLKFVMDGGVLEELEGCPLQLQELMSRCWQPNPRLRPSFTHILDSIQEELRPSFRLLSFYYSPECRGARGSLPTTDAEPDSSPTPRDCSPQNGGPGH
FER, sequence (P16591 whole entry, species assumed): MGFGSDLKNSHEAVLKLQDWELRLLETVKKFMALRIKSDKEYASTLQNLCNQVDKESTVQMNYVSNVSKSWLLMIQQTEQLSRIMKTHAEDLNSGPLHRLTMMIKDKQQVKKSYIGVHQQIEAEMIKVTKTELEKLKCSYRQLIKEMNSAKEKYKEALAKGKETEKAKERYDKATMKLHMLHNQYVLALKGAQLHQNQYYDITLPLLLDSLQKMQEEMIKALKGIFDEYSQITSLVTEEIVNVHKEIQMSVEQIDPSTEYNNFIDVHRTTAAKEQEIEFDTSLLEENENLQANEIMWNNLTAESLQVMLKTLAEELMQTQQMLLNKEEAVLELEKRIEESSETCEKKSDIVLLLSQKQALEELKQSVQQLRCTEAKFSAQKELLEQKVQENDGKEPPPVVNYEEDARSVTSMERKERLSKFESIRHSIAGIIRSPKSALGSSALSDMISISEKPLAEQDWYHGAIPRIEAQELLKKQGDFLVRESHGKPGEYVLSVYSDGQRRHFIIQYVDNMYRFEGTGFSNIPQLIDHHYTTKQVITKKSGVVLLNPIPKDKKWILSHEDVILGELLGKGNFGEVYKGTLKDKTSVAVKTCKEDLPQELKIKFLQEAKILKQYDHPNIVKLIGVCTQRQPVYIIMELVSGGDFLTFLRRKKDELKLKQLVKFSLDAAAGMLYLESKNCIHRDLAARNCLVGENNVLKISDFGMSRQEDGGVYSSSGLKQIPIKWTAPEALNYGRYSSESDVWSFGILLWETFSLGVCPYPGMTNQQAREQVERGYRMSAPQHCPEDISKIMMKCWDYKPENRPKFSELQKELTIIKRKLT
EGFR, sequence (P00533 25-1210, species assumed): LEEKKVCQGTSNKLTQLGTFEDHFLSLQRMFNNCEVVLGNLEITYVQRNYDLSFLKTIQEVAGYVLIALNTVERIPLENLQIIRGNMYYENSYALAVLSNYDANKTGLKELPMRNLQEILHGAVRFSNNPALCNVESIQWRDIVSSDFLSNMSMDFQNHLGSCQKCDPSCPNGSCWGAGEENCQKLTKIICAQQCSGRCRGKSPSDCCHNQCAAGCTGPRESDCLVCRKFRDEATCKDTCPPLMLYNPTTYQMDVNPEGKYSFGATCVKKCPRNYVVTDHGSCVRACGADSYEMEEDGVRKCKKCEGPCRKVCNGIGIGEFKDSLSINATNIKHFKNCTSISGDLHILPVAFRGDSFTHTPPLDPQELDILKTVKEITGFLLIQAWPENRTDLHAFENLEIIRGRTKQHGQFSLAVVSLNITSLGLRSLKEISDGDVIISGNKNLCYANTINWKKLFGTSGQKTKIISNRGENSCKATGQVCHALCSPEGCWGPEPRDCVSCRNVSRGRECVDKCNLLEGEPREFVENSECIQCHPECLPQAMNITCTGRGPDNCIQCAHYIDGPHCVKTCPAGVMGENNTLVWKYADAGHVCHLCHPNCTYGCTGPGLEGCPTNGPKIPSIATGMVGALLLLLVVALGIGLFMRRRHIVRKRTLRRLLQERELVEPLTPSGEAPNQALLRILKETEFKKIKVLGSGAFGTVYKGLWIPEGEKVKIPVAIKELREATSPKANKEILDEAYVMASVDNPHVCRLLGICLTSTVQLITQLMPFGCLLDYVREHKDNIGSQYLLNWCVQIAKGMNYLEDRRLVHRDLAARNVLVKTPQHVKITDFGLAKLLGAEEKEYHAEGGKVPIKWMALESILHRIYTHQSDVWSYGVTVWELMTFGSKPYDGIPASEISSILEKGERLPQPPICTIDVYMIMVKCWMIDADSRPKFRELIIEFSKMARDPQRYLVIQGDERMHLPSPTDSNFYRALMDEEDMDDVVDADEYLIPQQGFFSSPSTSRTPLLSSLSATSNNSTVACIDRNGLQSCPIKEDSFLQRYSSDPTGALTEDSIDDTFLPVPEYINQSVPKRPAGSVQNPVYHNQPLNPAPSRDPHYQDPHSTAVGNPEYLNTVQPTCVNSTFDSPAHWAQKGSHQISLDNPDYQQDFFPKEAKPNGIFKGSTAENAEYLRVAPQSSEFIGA
CAMK2G, sequence (Q13555 whole entry, species assumed): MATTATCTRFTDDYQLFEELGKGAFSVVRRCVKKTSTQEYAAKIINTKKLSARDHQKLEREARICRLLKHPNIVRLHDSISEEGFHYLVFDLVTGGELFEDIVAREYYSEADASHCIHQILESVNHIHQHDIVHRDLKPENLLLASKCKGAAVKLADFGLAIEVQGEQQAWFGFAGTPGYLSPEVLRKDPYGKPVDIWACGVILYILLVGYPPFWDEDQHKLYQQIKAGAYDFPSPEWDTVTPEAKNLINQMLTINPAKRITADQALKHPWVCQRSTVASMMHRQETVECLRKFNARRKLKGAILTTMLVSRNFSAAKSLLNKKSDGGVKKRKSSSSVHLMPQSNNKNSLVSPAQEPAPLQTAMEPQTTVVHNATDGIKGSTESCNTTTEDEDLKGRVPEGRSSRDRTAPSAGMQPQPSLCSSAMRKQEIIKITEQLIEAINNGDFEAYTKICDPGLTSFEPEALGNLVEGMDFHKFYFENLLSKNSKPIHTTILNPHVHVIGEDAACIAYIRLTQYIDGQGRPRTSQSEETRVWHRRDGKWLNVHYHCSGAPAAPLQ

For the compound `COc1cc(N2CCC(N3CCN(CC4CCN(c5ccc6c(c5)CN(C5CCC(=O)NC5=O)C6=O)CC4)CC3)CC2)ccc1Nc1ncc(Cl)c(Nc2ccccc2P(C)(C)=O)n1` (centres unmarked) [9o, 3-(5-(4-((4-(1-(4-((5-Chloro-4-((2-(dimethylphosphoryl)phenyl)amino)pyrimidin-2-yl)amino)-3-methoxyphenyl)piperidin-4-yl)piperazin-1-yl)methyl)piperidin-1-yl)-1-oxoisoindolin-2-yl)piperidine-2,6-dione], the IC50 is 45 nM on INSRR; 3.1 nM on FER; 48 nM against CAMK2G; 1.1 ± 0.3 nM in data set [1]; 161 nM against ROS1 (G2032R); 69 nM against EGFR. In addition, the IC50 on ERBB2 was 42 nM; in [4], 1.9 to 66 nM; in the data set on Ba/F3 ROS1-G2032R, 6.3 ± 2.1 nM; against FES, < 10 nM and 7.5 nM. Further, in the data set on ROS1 (L2086F), it took 5.4 nM to reach half-maximal degradation (DC50). Also, the logP (commonly the decadic logarithm of the partition coefficient of the neutral form, usually between octanol and water) in “Log P measurement” was 2.54. For the same compound, the “AUC (iv)” value in data set [2] amounted to 1736 ng·h/mL. The “TGI (tumor growth inhibition)” value is recorded as 62% in [3] (10 mg/kg PO qd), 164% in data set [3] (30 mg/kg PO qd), 33% in data set [5] (10 mg/kg PO qd) and 78% in data set [5] (30 mg/kg PO qd).
